Test results: patent publication US20240000734A1, “PHARMACEUTICAL COMPOSITION HAVING AN ANALGAESIC AND AN ANTIHISTAMINE FOR TREATING RESPIRATORY DISEASES” (LABORATORIOS SILANES S.A. DE C.V., priority 2020, published 2024)

What was measured:
clinical = conditions: both, human, in vivo, po, 800 mg
[1] = tested on: patients with uncomplicated acute bronchitis; conditions: cited from earlier work; for Adverse events: P=0.008; for median number of days with cough: oral, placebo 11 days, not statistically significant

SMILES: CC(C)Cc1ccc(C(C)C(=O)O)cc1 (racemic) [Ibuprofen, (±)-2-(4-isobutylphenyl) propionic acid]
- Cmax (clinical): 54.6 µg/mL
- Tmax (clinical): 1.35 ± 0.75 h
- AUC (clinical; AUC0^t): 185 µg·h/mL
- AUC (clinical; AUC0^∞): 192 µg·h/mL
- Adverse events [1]: 5%
- median number of days with cough [1]: 9 days

SMILES: CC1(C)S[C@@H]2[C@H](NC(=O)[C@H](N)c3ccc(O)cc3)C(=O)N2[C@H]1C(=O)O [amoxicillin]
- Adverse events [1]: 12%
- median number of days with cough [1]: 11 days
